The data set deals with pancreatic cancer. Kind of data set: Phase I/II study P-001, efficacy (PFS, OS) in pancreatic cancer patients. It is filed as in vivo, human. On the procedure: At screening, up to 10 “measurable lesions” (i.e. lesions that could be accurately measured in at least 1 dimension with a longest diameter of 2 cm) representative of all involved organs were identified as “target lesions” for tumor response assessment and were measured and documented. All other lesions were defined and recorded as “non-target lesions”. Tumor response was determined by the local investigator every 8 weeks after start of the first trabedersen cycle during follow-up visits, irrespective of whether the patient was still on treatment or off treatment. The tumor assessment was based on Response Evaluation Criteria in Solid Tumors (RECIST 1.0) criteria. The categories of overall tumor response are as follows: (1) Complete response (CR): disappearance of all target and non-target lesions and normalization of tumor marker level; (2) Partial response (PR): at least 30% decrease in the sum of the longest diameter (LD) of target lesions (baseline sum LD as reference) and/or persistence of one or more non-target lesions and/or maintenance of tumor marker level above normal limits; (3) Stable disease (SD): less than 30% decrease or less than 20% increase in sum LD target lesions (smallest sum LD since treatment start as reference) and/or persistence of one or more non-target lesions and/or maintenance of tumor marker level above normal limits; (4) Progressive disease (PD) At least 20% increase in sum LD target lesions (smallest sum LD since treatment start as reference) and/or unequivocal progression of existing nontarget lesions and/or appearance of one or more new lesions; and (5) Unknown.
Progression-free survival (PFS) was defined as the time from Day 1 until tumor progression or death from any cause. The date of progression was either the date of the image showing progression or the date of treatment termination in case one of the reasons for treatment termination was tumor progression (referring to clinical progression as assessed by the Investigator), whichever occurred first.
Overall survival (OS) was defined as the time from Day 1 until death from any cause. All patients were followed for survival during the follow-up assessments every 8 weeks. The survival status was documented at the Final Visit (Day 29) and during the 8-weekly post-treatment follow-up assessments, and was continued to be collected after study closure until database lock or until the patient was lost to follow-up.
There were […] line patients and 11 third line and beyond on the 4 days on and 10 days off regimen. The PFS/OS (progression free survival/overall survival ratio) of these second line patients in months were: 1.87/5.60 (N=6), 1.87/9.93 (N=11) and 2.72/11.80 (N=5) at increasing mean dose of 140 mg/m^2/day, 167 mg/m^2/day, and 196 mg/m^2/day, respectively. The OS of 9.93 and 11.80 are higher than the highest reported in the 65 trials reported in the literature during 1997-2015 (range=2.50-9.20/median=5.50). The corresponding PFS values were in line with reported literature (range=0.00-7.65/median=2.43). […] Trabedersen itself was not having an impact on the tumor (FIG. 1).

Setting [1] is: FIG. 1, trabedersen as second line treatment.
The mark [2] stands for this setting: second line pancreatic cancer patients, 4 days on/10 days off, mean dose 140 mg/m^2/day (N=6).
Where [3] appears, read: second line pancreatic cancer patients, 4 days on/10 days off, mean dose 167 mg/m^2/day (N=11).
Where [4] appears, read: second line pancreatic cancer patients, 4 days on/10 days off, mean dose 196 mg/m^2/day (N=5).

In the oligonucleotide strings, read from the 5' end, every base follows the letter of its sugar. An asterisk marks phosphorothioate; unmarked linkages are phosphodiester. Other units and linkages are bracketed, terminal groups are in braces. A string of capitals states the bases alone. d = 2'-deoxy (DNA)

For “trabedersen: TGF-beta2 specific phosphorothioate antisense oligodeoxynucleotide with the sequence 5′-CGGCATGTCTATTTTGTA-3′ (SEQ ID No: 1) (antisense dC*dG*dG*dC*dA*dT*dG*dT*dC*dT*dA*dT*dT*dT*dT*dG*dT*dA)”, the OS (4/10 cohort treated with subsequent chemotherapies, p=0.0023, Log-rank) is listed as 14.7 mos; the OS (4/10 cohort without subsequent chemotherapies) amounted to 2.93 mos; the OS (chemotherapy on 2nd line followed by trabedersen 4/10 regimen as third line (N=9), p=0.046 vs trabedersen first) is listed as 2.80 mos; the OS under setting [2] stood at 5.60 months; the OS under setting [3] worked out at 9.93 months; the OS under setting [4] was 11.80 months. In addition, for the setting “trabedersen on 2nd line followed with subsequent therapies (N=11), p=0.046, Log-rank”, the OS turned out to be 9.93 mos. In addition, the “OS compared to reported median OS” value under setting [1] is “higher than reported in the literature”. Besides, the “PFS compared to reported median PFS” value under setting [1] is reported as “not significantly different”. The “effect on the tumor, as indicated by overall survival rate” value (FIG. 3, trabedersen alone) is reported as “does not have a significant effect on the tumor”. Further, for the setting “FIG. 3, trabedersen therapy followed by chemotherapy”, the “effect on overall survival rate” value was “significant increase in the overall survival rate”. For the same substance, the PFS reads like this: under setting [2], 1.87 months; under setting [3], 1.87 months; under setting [4], 2.72 months.
